Test results published in patent US20080038809A1, “ISOLATED LECTIN POLYPEPTIDES CONSISTING OF TRUNCATED […] UDP-GalNAc:POLYPEPTIDE N- ACETYLGALACTOSAMINYLTRANSFERASES” (GLYCOZYM APS, priority 2002, published 2008).

Assays:
[1] = molecular target: T1, secreted soluble GalNAc-T2 (Homo sapiens, UniProt Q10471); experiment: Inhibition of secreted soluble GalNAc-T2 (sT2) binding to GalNAc-MUC1 glycopeptide, ELISA
T1 construct: 6xHis (N); thrombin cleavage site (N); T7 antibody site (N); made in house; host or cells: baculovirus (pAcGP67A), High Five insect cells
Protocol: (§1) Direct binding ELISA assay was developed as follows: Polystyrene microtiter plates (Maxisorb, Nunc, Denmark) were coated with peptides or enzymatically glycosylated glycopeptides in PBS overnight at 4° C. Plates were washed and blocked with 0.1% Tween20 and 0.2% BSA in PBS for 1 h at room temperature, followed by incubation with biotinylated proteins in PBS with 0.05% Tween20 for 2 h at room temperature. After four washes with PBS, plates were incubated with 1:2,000 dilution streptavidin-HRP (Sigma) in PBS for 30 min at room temperature and washed four times with PBS. Development was performed with 0.5 mg/ml o-phenylenediamine and 0.02% H2O2 at room temperature for 15 min, and reaction stopped by adding 100 μl/well of 0.5 N H2SO4. Competitive inhibition assays were done at end-point titers of GalNAc-transferase proteins with one hour preincubations with inhibitor.
(§2) Inhibition experiments were used to further define the binding specificity of GalNAc-T2 and -T4 secreted soluble enzymes as well as lectin domains compared to Helix Pomatia lectin (Table IV).

[2] = tested on: MUC1 in CHO1d1D/MUC1F-clone2 cells; experiment: MUC1 expression in cell lysates, immunoprecipitation and SDS-PAGE western blot (FIGS. 12-15); format: cell-based, Chinese Hamster; conditions: 2 mM, 48 hours, 5E5 blot
GalNAc-T4 = GalNAc-T4 (Homo sapiens, UniProt Q8N4A0); conditions: mM concentrations; cited from earlier work
[3] = tested on: MUC1 in CHO1d1D/MUC1F-clone2 cells; experiment: Cell surface expression of MUC1 by immunocytology of non-permeabilized cells (FIG. 11); format: cell-based, Chinese Hamster; conditions: 1 mM, cells grown in GalNAc
Protocol: Immunocytology: Two different procedures were applied: i) For general screening purposes, cells grown in plates or flasks were trypsinized, washed in saline, and airdried on multiwell coverslides. Slides were fixed in ice-cold acetone and stained with monoclonal antibodies and FITC-conjugated rabbit anti-mouse Ig as previously described^50. ii) For analysis of cell surface expression, cells were seeded in 6 well plates and grown for 6 hours in Hams F12 medium with serum until approximately 30-50% subconfluent. […] Cells were washed once in PBS (phosphate buffered saline without Calcium and Magnesium) and subsequently fixed in 2 ml 3% paraformaldehyde at 25° C. for 20 min followed by three washes with PBS. Free aldehyde groups were quenched by incubating in 2 mL 50 mM Ammonium Chloride in PBS for 10 min, followed by three washes with PBS and three washes with 5 min incubations each with PBS containing 0.2% Fish Skin Gelatin (Sigma). Immunostaining of cells was performed by incubation with monoclonal antibodies for 40 min at 25° C., followed by three washes with PBS and three washes of 5 min each with PBS containing 0.2% Fish Skin Gelatin. […]
We therefore investigated the effect of treatment with GalNAcα-benzyl of CHO1d1D/MUC1F-clone2 cells grown in the presence of GalNAc. […] Initially we analyzed surface expression of MUC1 by immunocytology. […]

GalNAc-T4 lectin domain = molecular target: T2, GalNAc-T4 lectin domain (Homo sapiens, UniProt Q8N4A0); experiment: Inhibition of GalNAc-T4 lectin domain (T4ld) binding to GalNAc-MUC1 glycopeptide, ELISA
T2 construct: comprises amino acid residues 405-578 of GALNT4; made in house; host or cells: baculovirus (pAcGP67-A), virus made in Sf9, protein produced in High Five insect cells
Protocol: as §1
In binding studies using lectins without biotinylation antibodies to the HIS-tag and the T7-tag, or in some experiments antibodies raised to GalNAc-T2 and -T4 enzymes were used to detect binding.
as §2

[4] = molecular target: T3, secreted soluble GalNAc-T4 (Homo sapiens, UniProt Q8N4A0); experiment: Inhibition of secreted soluble GalNAc-T4 (sT4) binding to GalNAc-MUC1 glycopeptide, ELISA
T3 construct: 6xHis (N); thrombin cleavage site (N); T7 antibody site (N); made in house; host or cells: baculovirus (pAcGP67A), High Five insect cells
Protocol: as §1, §2

HT29 MTX cells = conditions: cited from earlier work
O-glycan processing = conditions: cited from earlier work
β3Gal-T5 = β3Gal-T5 (Homo sapiens, UniProt Q9Y2C3); conditions: cited from earlier work
β3Gal-T4 = β3Gal-T4 (Homo sapiens, UniProt O96024); conditions: cited from earlier work
[5] = molecular target: human GalNAc-T4 (UDP-GalNAc:polypeptide N-acetylgalactosaminyltransferase T4), secreted soluble enzyme (sT4), wild type (Homo sapiens, UniProt Q8N4A0); conditions: binding to GalNAc-MUC1 glycopeptide
Protocol: The pH of 1 ml purified protein (0.3 mg/ml) in PBS was adjusted to pH 9 with 1 M NaOH and 40 μl N-hydroxy-succinimidobiotin (Sigma) dissolved in DMF (10 mg/ml) was added. The solution was mixed end-over-end for 2 hours at room temperature, and dialyzed three times against PBS and an equal volume of glycerol was added. The biotinylated proteins were stored at −20° C. in 50% glycerol until use.
Glycopeptides were purified by C-18 reverse phase HPLC. Peptides were custom synthesized by Neosystems (Strasbourg). Biotinylated Helix Pomatia lectin (HPA) was from KemEnTec (Denmark). Anti-MUC1 HMFG2 monoclonal antibody was a generous gift from Joyce Taylor-Papadimitriou.
Direct binding ELISA assay was developed as follows: Polystyrene microtiter plates (Maxisorb, Nunc, Denmark) were coated with peptides or enzymatically glycosylated glycopeptides in PBS overnight at 4° C. Plates were washed and blocked with 0.1% Tween20 and 0.2% BSA in PBS for 1 h at room temperature, followed by incubation with biotinylated proteins in PBS with 0.05% Tween20 for 2 h at room temperature. After four washes with PBS, plates were incubated with 1:2,000 dilution streptavidin-HRP (Sigma) in PBS for 30 min at room temperature and washed four times with PBS. […]

T2 sequence (Q8N4A0 405-578): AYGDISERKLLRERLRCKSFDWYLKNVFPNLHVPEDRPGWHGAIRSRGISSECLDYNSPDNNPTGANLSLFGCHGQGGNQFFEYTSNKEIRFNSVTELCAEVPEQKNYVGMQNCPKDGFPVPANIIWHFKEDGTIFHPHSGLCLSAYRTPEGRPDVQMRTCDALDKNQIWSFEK
Chain of β3Gal-T5 (Q9Y2C3 whole entry, species assumed): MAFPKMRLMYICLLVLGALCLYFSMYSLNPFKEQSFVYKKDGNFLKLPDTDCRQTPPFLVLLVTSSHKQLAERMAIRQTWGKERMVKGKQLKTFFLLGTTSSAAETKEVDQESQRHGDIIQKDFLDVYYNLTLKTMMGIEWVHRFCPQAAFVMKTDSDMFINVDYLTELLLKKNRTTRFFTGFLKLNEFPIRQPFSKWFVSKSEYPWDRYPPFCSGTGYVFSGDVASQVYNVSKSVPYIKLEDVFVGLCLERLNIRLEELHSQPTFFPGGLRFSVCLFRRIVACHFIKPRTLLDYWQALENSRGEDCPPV
Chain of human GalNAc-T4 (UDP-GalNAc:polypeptide N-acetylgalactosaminyltransferase T4), secreted soluble enzyme (sT4), wild type (Q8N4A0 36-578 limits assumed): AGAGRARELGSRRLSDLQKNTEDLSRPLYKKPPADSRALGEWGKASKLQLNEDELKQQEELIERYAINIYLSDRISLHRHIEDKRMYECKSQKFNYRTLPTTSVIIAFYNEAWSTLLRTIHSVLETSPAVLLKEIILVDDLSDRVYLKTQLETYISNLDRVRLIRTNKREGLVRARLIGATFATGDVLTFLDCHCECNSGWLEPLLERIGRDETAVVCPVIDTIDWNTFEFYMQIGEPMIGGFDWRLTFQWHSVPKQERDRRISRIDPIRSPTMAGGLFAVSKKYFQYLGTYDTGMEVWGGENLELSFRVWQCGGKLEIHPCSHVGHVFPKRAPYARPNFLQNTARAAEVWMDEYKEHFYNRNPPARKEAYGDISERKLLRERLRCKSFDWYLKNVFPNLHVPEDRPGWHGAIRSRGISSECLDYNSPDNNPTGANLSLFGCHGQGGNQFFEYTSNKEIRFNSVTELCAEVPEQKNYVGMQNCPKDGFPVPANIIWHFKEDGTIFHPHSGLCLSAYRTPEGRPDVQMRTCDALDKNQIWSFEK
T3 sequence (Q8N4A0 36-578 limits assumed): as above
Chain of GalNAc-T4 (Q8N4A0 whole entry): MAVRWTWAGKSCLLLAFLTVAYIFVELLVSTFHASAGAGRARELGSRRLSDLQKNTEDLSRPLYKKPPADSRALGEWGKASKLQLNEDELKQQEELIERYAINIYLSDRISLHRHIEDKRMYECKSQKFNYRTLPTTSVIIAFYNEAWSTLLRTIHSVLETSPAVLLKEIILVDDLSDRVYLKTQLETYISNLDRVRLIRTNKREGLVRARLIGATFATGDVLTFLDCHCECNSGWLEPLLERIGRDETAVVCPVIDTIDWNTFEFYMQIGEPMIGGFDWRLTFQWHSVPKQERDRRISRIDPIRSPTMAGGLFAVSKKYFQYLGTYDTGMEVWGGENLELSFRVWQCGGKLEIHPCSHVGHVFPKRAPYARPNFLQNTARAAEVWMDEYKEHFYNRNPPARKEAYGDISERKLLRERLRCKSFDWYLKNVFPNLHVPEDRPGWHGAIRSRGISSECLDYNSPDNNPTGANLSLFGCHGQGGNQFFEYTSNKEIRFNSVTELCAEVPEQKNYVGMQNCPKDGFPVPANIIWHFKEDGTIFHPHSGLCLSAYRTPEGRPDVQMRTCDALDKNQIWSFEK
Chain of β3Gal-T4 (O96024 whole entry): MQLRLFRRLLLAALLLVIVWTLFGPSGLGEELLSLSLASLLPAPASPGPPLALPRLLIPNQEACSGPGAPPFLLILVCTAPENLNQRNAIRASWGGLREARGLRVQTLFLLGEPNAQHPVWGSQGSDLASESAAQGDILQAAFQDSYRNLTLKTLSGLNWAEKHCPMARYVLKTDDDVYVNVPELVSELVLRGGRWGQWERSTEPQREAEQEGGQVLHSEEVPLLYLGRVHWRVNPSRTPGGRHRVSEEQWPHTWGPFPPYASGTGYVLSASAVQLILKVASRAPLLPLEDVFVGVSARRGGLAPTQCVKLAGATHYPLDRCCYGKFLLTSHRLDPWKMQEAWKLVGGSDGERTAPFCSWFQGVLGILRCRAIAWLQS
T1 sequence (Q10471 52-571 limits assumed): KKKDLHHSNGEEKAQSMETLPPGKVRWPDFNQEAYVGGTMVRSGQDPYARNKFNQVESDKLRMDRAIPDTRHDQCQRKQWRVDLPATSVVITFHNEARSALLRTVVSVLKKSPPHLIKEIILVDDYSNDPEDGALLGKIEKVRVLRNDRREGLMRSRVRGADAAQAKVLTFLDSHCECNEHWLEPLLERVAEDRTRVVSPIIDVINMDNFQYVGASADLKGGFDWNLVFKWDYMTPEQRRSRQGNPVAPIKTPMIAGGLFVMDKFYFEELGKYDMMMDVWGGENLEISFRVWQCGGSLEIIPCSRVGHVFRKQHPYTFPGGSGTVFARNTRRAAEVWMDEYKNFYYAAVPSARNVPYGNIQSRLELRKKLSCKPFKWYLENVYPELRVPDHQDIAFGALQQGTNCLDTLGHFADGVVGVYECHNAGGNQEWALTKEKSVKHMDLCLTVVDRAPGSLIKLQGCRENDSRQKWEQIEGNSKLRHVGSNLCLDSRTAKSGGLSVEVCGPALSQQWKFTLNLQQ

CC(=O)N[C@H]1[C@@H](OCc2ccccc2)O[C@H](CO)[C@H](O)[C@@H]1O [BzlαGalNAc, benzyl-N-acetyl-alpha-D-galactosaminide]
IC50 [1]: 15 mM | MUC1 expression [2]: significant reduction | inhibition of lectin mediated GalNAc-glycopeptide substrate specificity of GalNAc-T4 (GalNAc-T4): can inhibit | cell surface expression of MUC1 [3]: strong inhibition | IC50 (GalNAc-T4 lectin domain): 5 mM | IC50 [4]: 1 mM

CC(=O)N[C@H]1[C@@H](OCc2ccccc2)O[C@H](CO)[C@H](O)[C@@H]1O [GalNAcα-benzyl, benzyl-N-acetyl-alpha-D-galactosaminide]
inhibition of mucin secretion (HT29 MTX cells): Inhibition of mucin secretion | inhibition of O-glycan processing / sialylation (O-glycan processing): inhibit sialylation

CC(=O)N[C@H]1[C@H](OCc2ccccc2)O[C@H](CO)[C@H](O)[C@@H]1O [GalNAcβ-benzyl]
activity of β3Gal-T5 with the compound as acceptor (β3Gal-T5): no or very poor activity | activity of β3Gal-T4 with the compound as acceptor (β3Gal-T4): no or very poor activity

CC(=O)N[C@H]1[C@@H](OCc2ccccc2)O[C@H](CO)[C@@H](O)[C@@H]1O [GlcNAcα-benzyl]
inhibition of GalNAc-T4 lectin binding (in words) [5]: no inhibition
